In PMC5365662, “A Short Double-Stapled Peptide Inhibits Respiratory Syncytial Virus Entry and Spreading” (Antimicrobial Agents and Chemotherapy, 2017):
Entries after “also recorded” stand apart in the source; their conditions may differ. Bridge positions count the residues as written; N and C are the ends. Square brackets hold non-standard residues; d marks the D form. Peptide text beside a SMILES is read from it. R5 = C=CCCC[C@@](C)(N)C(=O)O; S5 = C=CCCC[C@](C)(N)C(=O)O

How the values were obtained:
[1] = Far-UV circular dichroism, α-helical content; assay type: physicochemical; conditions: CD, 10 mM phosphate buffer pH 7.5, 50 μM peptide, 25°C
Method: The circular dichroism spectra were acquired on a Chirascan spectropolarimeter. The samples were prepared in 10 mM phosphate buffer, pH 7.5, at a peptide concentration of 50 μM. Data were recorded at 25°C by step scan from 180 nm to 260 nm in a 0.5-mm path length quartz cell using 1-nm wavelength increments and a response time of 1 s. The data were converted to per residue molar ellipticity units [θ] (degree per square centimeter per decimole per residue) and smoothed using the Igor Pro software. The percentage of helicity was calculated as described previously ([35]).

[2] = system: rHRSV-mCherry in HEp-2 cells; test: rHRSV-mCherry inhibition assay; assay type: cell-based, human respiratory syncytial virus
In short: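 HEp-2 cells infected at MOI 0.2 with rHRSV-mCherry preincubated 15–20 min with serially diluted peptide, peptide kept in 2% FBS medium for 48 h at 37°C. Replication read as mCherry fluorescence (ex 580/em 620 nm), normalized to untreated infected cells; duplicates, curves fitted.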

HEp-2 cells = test: Cytotoxicity, CellTiter-Glo Luminescent cell viability assay; assay type: cell-based; conditions: serial dilutions of peptide, 24 h, duplicates
Method: Viral replication was quantified by measuring the mCherry fluorescence at 48 h p.i. and normalized based on the fluorescence of infected and untreated cells. (B) Cytotoxicity assay. HEp-2 cells were incubated in the presence of serial dilutions of peptides, and cell survival was quantified using the CellTiter-Glo Luminescent cell viability assay 24 h after the addition of the peptides. The signal was normalized based on the luminescence obtained for untreated cells. Error bars are standard deviations from duplicates.
A549 (ATCC CCL-185) cells were maintained in Dulbecco's modified Eagle medium (DMEM) supplemented with 10% fetal calf serum (FCS). HEp-2 (ATCC CCL-23) cells were maintained in Eagle's miminum essential medium (EMEM) supplemented with 10% FCS, 2 mM L-glutamine, and penicillin-streptomycin solution. The cells were grown in an incubator at 37°C in 5% CO2. Cytotoxicity assays were done with the CellTiter-Glo Luminescent cell viability assay (Promega).

rHRSV-Luc = test: RSV infection of mice, intranasal treatment, in vivo luminescence; conditions: BALB/c, n = 4
Method: In order to track the infection, we used the recombinant virus rHRSV-Luc, which was previously shown to allow in vivo imaging studies of RSV replication and spreading and constitutes a powerful and convenient tool for the evaluation of drug efficiency against RSV in the mouse model ([24]). […] Mice were anesthetized at day 3 p.i. and observed alive using the IVIS imaging system 5 min after i.n. injection of D-luciferin. […] At day 3 p.i., a second dose of the peptide was administered to the mice, and the bioluminescence was measured at day 5 p.i. […]
Female BALB/c mice were purchased from the Centre d'Elevage R. Janvier (Le Genest Saint-Isle, France) and were used at 8 weeks of age. […] Luminescence measurement was then performed at day 5 p.i.
Mice were anesthetized, and luminescence was measured 5 min following i.n. injection of 50 μl of PBS containing 0.75 mg kg^−1 of body weight D-luciferin (Sigma). Photon emission of mock-infected and rHRSV-Luc-infected mice was measured using the IVIS 200 imaging system (Xenogen Corp.). […] Digital false-color photon emission images of mice were generated, and photons were counted within a constant region of interest corresponding to the surface of the chest encompassing the whole-airway area. Photon emission was measured as radiance in photons per second per square centimeter per steradian (p s^−1 cm^−2 sr^−1).

[3] = assay type: in vivo; conditions: noninfected mice, same i.n. protocol, blood 1 month after first inoculation, ELISA, data not shown
Method: To investigate this further, peptide 4ca was administered to noninfected animals according to the same protocol. The blood of mice was collected 1 month after the first inoculation, and the presence of anti-4ca antibodies in the sera of these animals was analyzed by enzyme-linked immunosorbent assay (ELISA).

[4] = Temperature-dependent CD (T ramp), oligomeric state; assay type: physicochemical; conditions: 25 and 50 μM peptide, 25°C to 90°C in 5°C increments
Method: The temperature was increased from 25°C to 90°C in 5°C increments. […] Next, HEp-2 cells were infected with a recombinant RSV expressing the mCherry reported gene ([24]), and the inhibitory activity of the double-stapled peptides was quantified by fluorescence readout.
B) […]. The cell holding the sample was heating at the desired temperature and the CD spectra was measured as described in material and methods. The temperature was increased from 25 °C to 90 °C by 5 °C increments.
Panel C) and D) are the CD curve performed at 25 °C prior to increase the temperature (unheated) and after letting the sample heated at 90 °C (heated) cool down to 25 °C. […]

CC[C@H](C)[C@@H]1NC(=O)[C@H](Cc2ccccc2)NC(=O)[C@@](C)(NC(=O)[C@H](CC(C)C)NC(=O)[C@H](CO)NC(=O)[C@]2(C)CCCC=CCCC[C@@](C)(NC(=O)[C@H](CCC(=O)O)NC(C)=O)C(=O)N[C@@H]([C@@H](C)CC)C(=O)N[C@@H](CC(N)=O)C(=O)N2)CCCC=CCCC[C@@](C)(C(=O)N[C@@H](CO)C(=O)N[C@@H](CC(=O)O)C(=O)N[C@@H](CCC(=O)O)C(=O)N[C@@H](CC(C)C)C(=O)N[C@@H](CC(C)C)C(=O)N[C@@H](Cc2c[nH]cn2)C(=O)N[C@@H](CC(N)=O)C(=O)N[C@H](C(N)=O)C(C)C)NC(=O)[C@H](CCCNC(=N)N)NC1=O [Peptide 4ca] (Ac-E[R5]IN[S5]SL[S5]FIR[S5]SDELLHNV-NH2; staple 2-5, 8-12)
% Helicity ([1]; Table 2): >100% | % Helicity ([1]; Table 3 (Ala scan)): 85% | EC50 ([2]; HEp-2, rHRSV-mCherry MOI 0.2, addition of peptide after infection of cells, 48 h p.i.): 8300 nM | EC50 ([2]; HEp-2, rHRSV-mCherry MOI 0.2, preincubation of the virus with peptide prior to cell infection, 48 h p.i.): 860 nM | EC50 ([2]; HEp-2, rHRSV-mCherry MOI 0.2, preincubation of virus with peptide and peptide maintained in medium after infection, 48 h p.i.): 470 nM | increase of antiviral potency relative to T118 ([2]; HEp-2, rHRSV-mCherry, EC50 versus T118 EC50 6.33 μM): 11 fold | EC50 ([2]; HEp-2 cells, RSV-Cherry MOI 0.2, peptide and virus removed after infection and fresh peptide added, mCherry fluorescence 48 h p.i., at least twice in duplicate): 590 ± 130 nM | EC50 ([2]; Table 3 (Ala scan), HEp-2 cells, rHRSV-mCherry MOI 0.2, 2-fold serial dilutions (11 dilutions), duplicate, ± SD of fit): 780 ± 60 nM | cellular toxicity (HEp-2 cells): no cellular toxicity was detected | decrease of viral infection versus untreated mice (bioluminescence) (rHRSV-Luc; i.n. 50 μl at 50 μM in PBS at day 0 (10 min before rHRSV-Luc 5 × 10^4 PFU) and day 3, day 5 p.i.): 3 fold | bioluminescence in snout and lungs versus control mice (rHRSV-Luc; i.n. 50 μl at 50 μM in PBS, rHRSV-Luc 5 × 10^4 PFU, day 3 p.i.): clearly reduced | antibodies specific to 4ca in sera (anti-IgG1, anti-IgG2a, anti-IgA) [3]: no antibodies specific to 4ca could be detected | conformational change / aggregation on temperature ramping [4]: No significant conformational change; also recorded: does not aggregate
